Assay results: patent US11453632B2, “1-phenyl-2-phenylethane derivative” (KAO CORPORATION, priority 2018, dated 2022)

Assays:
ERβ LBD = biological target: T1, ERβ LBD (Homo sapiens, UniProt Q92731); experiment: Ability to bind to ERβ: pBIND-ERβ LBD / GAL4 luciferase reporter in HEK293 cells; format: cell-based; set-up: key: RLU = firefly luminescence / Renilla luminescence; details: negative control 0.0118997
T1 construct: host or cells: HEK293
Description: This evaluation system is a system exploiting difference in the sequence of the ligand binding domain (LBD) between ERα and ERβ (J Endocrinol 163: 379-383 (1999)), and enables selective activation of ERβ to be evaluated by determining the binding of a ligand to LBD and the activation of ER.
(§1) A human kidney-derived cell line HEK293 was cultured (37° C., 5% CO2) in Dulbecco's modified Eagle medium (hereinafter, abbreviated to DMEM) containing 10% (v/v) fetal bovine serum (FBS) and penicillin/streptomycin.
(§2) 2) Measurement of Binding Activity Against ERs
(§3) This measurement was carried out according to the method described in JP-B-5990058. Specifically, HEK293 cells were inoculated at a cell density of 4.0×10^4 cells/well to a 96-well plate. After 12 hours therefrom, the medium was replaced with a culture solution (DMEM containing 5% (v/v) charcoal-treated serum). The cells were cotransfected with pBIND-ERα for the expression of ERα LBD or pBIND-ERβ for the expression of ERβ LBD (Promega Corp.) and pGL4.35[luc2P/9XGAL4UAS/Hygro](Promega Corp.) using Lipofectamine 2000 (Invitrogen Corp.) according to the protocol attached to the product. 24 hours after transfection, the medium was replaced with a culture solution containing a test sample, followed by culture for another 24 hours. The activity measurement of firefly luciferase (index for the ligand binding activity of ER) and Renilla reniformis luciferase (index for the transfection efficiency of the plasmids) was carried out using Dual-Glo™ Luciferase Assay System (Promega Corp.) according to the attached protocol. The luminescence intensity of the firefly luciferase was divided by the luminescence intensity of the Renilla reniformis luciferase to calculate a relative light unit (RLU).

ERβ = biological target: T2, ERβ (Homo sapiens, UniProt Q92731); experiment: Ability to activate transcription mediated by ERβ (pcDNA3-ERβ, pERE luciferase, HEK293 cells); format: cell-based; details: negative control 0.001475
T2 construct: host or cells: HEK293
Description: (§4) 1) Experimental Method (Measurement of Transcriptional Activity Mediated by ERs)
(§5) HEK293 cells were inoculated at a cell density of 4.0×10^4 cells/well to a 96-well plate. After 12 hours therefrom, the medium was replaced with a culture solution (DMEM containing 5% (v/v) charcoal-treated serum). The cells were cotransfected with pcDNA3-ERα or pcDNA3-ERβ (Promega Corp.) and pERE and pRL-CMV (Promega Corp.) using Lipofectamine 2000 (Invitrogen Corp.) according to the protocol attached to the product. 24 hours after transfection, the medium was replaced with a culture medium containing a test sample, followed by culture for another 24 hours. Then, luciferase activity was measured using Dual-Glo™ Luciferase Assay System (Promega Corp.) according to the attached protocol. The luminescence intensity of firefly luciferase (index for the ability to activate transcription mediated by ERE) was divided by the luminescence intensity of Renilla reniformis luciferase (index for the transfection efficiency of the plasmids) to calculate a relative light unit (RLU).

ERα LBD = biological target: T3, ERα LBD (Homo sapiens, UniProt P03372); experiment: Ability to bind to ERα: pBIND-ERα LBD / GAL4 luciferase reporter in HEK293 cells; format: cell-based; set-up: key: firefly luciferase / Renilla luciferase luminescence ratio; details: negative control 0.00847035
T3 construct: host or cells: HEK293
T3 sequence (P03372 311-547 limits assumed): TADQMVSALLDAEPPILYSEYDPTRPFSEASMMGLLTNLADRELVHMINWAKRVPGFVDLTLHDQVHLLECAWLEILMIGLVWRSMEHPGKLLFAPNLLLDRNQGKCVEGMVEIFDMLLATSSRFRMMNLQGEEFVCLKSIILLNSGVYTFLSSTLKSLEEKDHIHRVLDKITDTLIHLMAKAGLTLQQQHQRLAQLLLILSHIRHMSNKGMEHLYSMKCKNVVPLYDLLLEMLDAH
Description: as §1, §2
as §3, with “Specifically,” for “This measurement was carried out according to the method described in JP-B-5990058. Specifically,”

ERα = biological target: T4, ERα (Homo sapiens, UniProt P03372); experiment: Ability to activate transcription mediated by ERα (pcDNA3-ERα, pERE luciferase, HEK293 cells); format: cell-based; details: negative control 0.004573
T4 construct: host or cells: HEK293
T4 sequence (P03372 1-595): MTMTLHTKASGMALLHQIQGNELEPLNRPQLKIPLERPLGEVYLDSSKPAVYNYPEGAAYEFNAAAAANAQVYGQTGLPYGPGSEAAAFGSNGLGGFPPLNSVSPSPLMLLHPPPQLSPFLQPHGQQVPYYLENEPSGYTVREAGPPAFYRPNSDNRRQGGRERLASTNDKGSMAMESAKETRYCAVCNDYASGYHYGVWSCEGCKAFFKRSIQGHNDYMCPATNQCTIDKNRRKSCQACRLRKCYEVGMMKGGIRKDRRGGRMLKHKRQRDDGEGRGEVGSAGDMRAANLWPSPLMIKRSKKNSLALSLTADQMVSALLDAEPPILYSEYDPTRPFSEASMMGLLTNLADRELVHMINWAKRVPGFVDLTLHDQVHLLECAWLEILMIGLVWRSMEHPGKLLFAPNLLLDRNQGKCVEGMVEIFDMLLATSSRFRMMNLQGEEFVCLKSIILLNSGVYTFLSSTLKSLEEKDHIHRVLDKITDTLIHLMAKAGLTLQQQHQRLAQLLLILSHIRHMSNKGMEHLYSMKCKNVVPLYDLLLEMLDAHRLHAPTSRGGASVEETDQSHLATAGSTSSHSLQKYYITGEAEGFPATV
Description: as §4, §5

[1] = system: uterus of ovariectomized rat; experiment: Uterus weight in ovariectomized (OVX) rat; format: in vivo; details: 4 μg/kg/day subcutaneous, vs negative solvent group
Description: 8-week-old female Crl:CD (SD) rats were obtained from Charles River Laboratories Japan, Inc. and individually identified by the ear punching method on the receipt date. Then, an acclimatization period was established for 1 week. The animals were raised in a rearing room under a set environment involving a temperature of 22±3° C., a humidity of 50±20%, air ventilation from 13 to 17 times/hour, and a lighting time from 8:00 to 20:00. During the acclimatization period, the rats were allowed to freely ingest solid feed CRF-1 (Oriental Yeast Co., Ltd.). Since the feeding with CRF-1, the rats were allowed to freely ingest customized feed AIN-93G (Oriental Yeast Co., Ltd.) free from components derived from soybeans.
On the end date of acclimatization and the following day, the flank cavity was opened under isoflurane anesthesia to harvest the right and left ovaries including fallopian tubes. Other non-OVX rats were subjected to only opening and suture (sham surgery). Immediately thereafter, an antibiotic was subcutaneously administered at a dose of 100 μl/animal. After the surgery, the sham surgery or OVX animals were given customized feed and raised for approximately 1 week.
From 1.5 hours before a shift from the light phase to the dark phase (18:30), a negative solvent (DMSO) or a test substance was subcutaneously administered at a dose of 0.5 ml/kg to the back of the neck according to Table 3 described below using a syringe and an injection needle.
After the completion of all procedures of measurement and analysis, the rats were euthanized by blood letting under isoflurane anesthesia, and the uterus was harvested. Wet weights were measured.
Skin temperatures differed largely among individuals, and the Smirnov-Grubbs test was conducted in order to exclude outliers beforehand. Results of measuring tail skin temperatures and results of measuring uterus weights were statistically analyzed by testing using the Dunnett's test.

T1 sequence (Q92731 264-498 limits assumed): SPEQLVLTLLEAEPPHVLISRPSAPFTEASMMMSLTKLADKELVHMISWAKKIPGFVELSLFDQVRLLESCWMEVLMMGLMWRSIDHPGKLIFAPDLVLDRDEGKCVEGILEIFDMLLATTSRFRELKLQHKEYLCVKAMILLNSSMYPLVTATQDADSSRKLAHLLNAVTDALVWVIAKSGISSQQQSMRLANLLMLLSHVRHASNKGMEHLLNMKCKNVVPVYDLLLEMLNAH
T2 sequence (Q92731 whole entry): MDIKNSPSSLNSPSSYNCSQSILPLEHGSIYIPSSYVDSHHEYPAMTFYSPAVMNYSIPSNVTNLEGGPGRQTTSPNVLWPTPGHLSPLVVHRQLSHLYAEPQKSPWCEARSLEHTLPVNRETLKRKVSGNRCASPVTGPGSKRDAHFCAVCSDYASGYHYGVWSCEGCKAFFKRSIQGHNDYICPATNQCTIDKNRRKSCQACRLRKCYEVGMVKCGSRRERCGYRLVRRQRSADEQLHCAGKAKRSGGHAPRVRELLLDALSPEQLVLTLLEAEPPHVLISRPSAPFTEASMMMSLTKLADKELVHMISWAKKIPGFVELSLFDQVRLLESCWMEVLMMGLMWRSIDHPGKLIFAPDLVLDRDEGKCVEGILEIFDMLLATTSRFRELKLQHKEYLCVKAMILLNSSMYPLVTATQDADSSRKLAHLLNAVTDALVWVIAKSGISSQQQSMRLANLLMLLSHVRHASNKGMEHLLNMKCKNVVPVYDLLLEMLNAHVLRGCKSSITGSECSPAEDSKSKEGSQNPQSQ

| Compound | relative light unit (RLU), ligand binding activity ERβ (ERβ LBD; 0.01 nM) | relative light unit (RLU), ligand binding activity ERβ (ERβ LBD; 0.1 nM) | relative light unit (RLU), ligand binding activity ERβ (ERβ LBD; 1 nM) | relative light unit (RLU), ligand binding activity ERβ (ERβ LBD; 10 nM) | relative light unit (RLU), ligand binding activity ERβ (ERβ LBD; 100 nM) | relative light unit (RLU), transcription activation ERβ (ERβ; 0.01 pM) | relative light unit (RLU), transcription activation ERβ (ERβ; 0.1 pM) | relative light unit (RLU), transcription activation ERβ (ERβ; 1 pM) | relative light unit (RLU), transcription activation ERβ (ERβ; 10 pM) | relative light unit (RLU), transcription activation ERβ (ERβ; 100 pM) | relative light unit (RLU), transcription activation ERβ (ERβ; 1000 pM) | relative light unit (RLU), transcription activation ERβ (ERβ; 10000 pM) | relative light unit (RLU), ligand binding activity ERα (ERα LBD; 0.01 nM) | relative light unit (RLU), ligand binding activity ERα (ERα LBD; 0.1 nM) | relative light unit (RLU), ligand binding activity ERα (ERα LBD; 1 nM) | relative light unit (RLU), ligand binding activity ERα (ERα LBD; 10 nM) | relative light unit (RLU), ligand binding activity ERα (ERα LBD; 100 nM) | relative light unit (RLU), transcription activation ERα (ERα; 0.1 pM) | relative light unit (RLU), transcription activation ERα (ERα; 1 pM) | relative light unit (RLU), transcription activation ERα (ERα; 10 pM) | further results |
| --- | --- | --- | --- | --- | --- | --- | --- | --- | --- | --- | --- | --- | --- | --- | --- | --- | --- | --- | --- | --- | --- |
| Oc1ccc(CC(c2ccc(O)cc2)C2CCCCC2)cc1 (stereo not drawn) [Compound 4, 4,4′-(1-cyclohexylethane-1,2-diyl)diphenol] | – | – | – | – | – | – | – | – | – | – | – | – | – | – | – | – | – | – | – | – | melting point: 74 to 76 °C |
| Oc1ccc(CC(C=C(F)F)c2ccc(O)cc2)cc1 (stereo not drawn) [Compound 7, 4,4′-(4,4-difluorobut-3-ene-1,2-diyl)diphenol] | 0.06046 | 0.9104 | 1.877 | 2.074 | 2.408 | 0.002068 | 0.002153 | 0.00383 | 0.01191 | 0.02336 | 0.03253 | 0.03471 | 0.02799 | 0.0373 | 0.02919 | 0.06191 | 1.588 | 0.006825 | 0.008059 | 0.008285 | relative light unit (RLU), transcription activation ERα (ERα; 100 pM): 0.01621; relative light unit (RLU), transcription activation ERα (ERα; 1000 pM): 0.04026; relative light unit (RLU), transcription activation ERα (ERα; 10000 pM): 0.04776 |
| 4-(4,4-difluoro-2-(4-hydroxyphenyl)but-3-en-1-yl)-3,5 [Compound 18-F] | 0.6452 | 2.101 | 2.317 | 2.025 | 2.304 | 0.003231 | 0.00681 | 0.01281 | 0.03479 | 0.03642 | 0.03659 | 0.03706 | 0.03608 | 0.1312 | 1.177 | 2.968 | 3.391 | 0.01194 | 0.01337 | 0.01971 | relative light unit (RLU), transcription activation ERα (ERα; 100 pM): 0.04067; relative light unit (RLU), transcription activation ERα (ERα; 1000 pM): 0.06395; relative light unit (RLU), transcription activation ERα (ERα; 10000 pM): 0.06152 |
| C[C@]12CC[C@@H]3c4ccc(O)cc4CC[C@H]3[C@@H]1CC[C@@H]2O [E2, estradiol, reference compound] | – | – | – | – | – | – | – | – | – | – | – | – | – | – | – | – | – | – | – | – | uterus wet weight (FIG. 6) [1]: significantly increased |
